From patent publication US20020055528A1, “Artemisinin analogs having antimalarial, antiproliferative, and antitumor activities and chemoselective methods of making the same” (priority 1999, published 2002)
“Also recorded” adds a separate entry of the source. Read-outs that look alike come from different tables or passages of the source.

Key:
RXF 393 = assay: NCI 60 cell line screen (SRB), Renal Cancer; assay type: cell-based
NCI-H522 = assay: NCI 60 cell line screen (SRB), Non-Small Cell Lung Cancer; assay type: cell-based
MDA-N = assay: NCI 60 cell line screen (SRB), Breast Cancer; assay type: cell-based
SR = assay: NCI 60 cell line screen (SRB), Leukemia; assay type: cell-based
MCF7 = assay: NCI 60 cell line screen (SRB), Breast Cancer; assay type: cell-based
OVCAR-3 = assay: NCI 60 cell line screen (SRB), Ovarian Cancer; assay type: cell-based; conditions: PG=0
MDA-MB-435 = assay: NCI 60 cell line screen (SRB), Breast Cancer; assay type: cell-based
PC-3 = assay: NCI 60 cell line screen (SRB), Prostate Cancer; assay type: cell-based
COLO 205 = assay: NCI 60 cell line screen (SRB), Colon Cancer; assay type: cell-based
HCT-15 = assay: NCI 60 cell line screen (SRB), Colon Cancer; assay type: cell-based
HOP-62 = assay: NCI 60 cell line screen (SRB), Non-Small Cell Lung Cancer; assay type: cell-based
MOLT-4 = system: MOLT-4
Protocol: (§1) The screening assay is performed on 96-well microtitre plates. Relatively high initial inoculation densities are used, in order to permit measurement of “time-zero” values and to enhance the screen's ability to detect and provide some differentiation between antiproliferative and cytotoxic response parameters. […] The inoculated microtitre plates are pre-incubated for 24 hours at 37θC prior to drug additions. The five drug dilutions tested routinely range from 10^−4 to 10^−8 molar. Higher or lower concentration ranges may be selected on a nonroutine basis if appropriate solubility and/or prior biological information or other screening data so dictate. Duplicate wells are prepared for all concentrations, (concentration is often denoted by placing brackets around a number); “time-zero” and “no drug” controls are also provided for each test. The minimum amount of compound required for a one-time evaluation in the routine screen can be calculated from the knowledge that each test requires a total of approximately 40 ml (0.04 liter) of cell culture medium containing the highest desired drug concentration. Thus, the amount (grams) of sample required (assuming an upper test concentration limit of 10^−4 M) is: molecular weight of compound×[…]. After a 48 hour incubation (37θC) with the test compound, the cells are fixed in situ to the bottoms of the microtitre wells by addition of 50 ul of either 50% trichloroacetic acid (for adherent cell lines) or 80% trichloroacetic acid (for settled cell suspension lines), followed by incubation for 60 minutes at 4θC. The cellular protein in each well is assayed using a sulforhodamine B (SRB) stain procedure. Briefly, after discarding the supernatants, the microtitre plates are washed 5 times with deionized water and air-dried. One hundred microliters of SRB solution (0.4% w/v in 1% acetic acid) is added to each microtitre well and incubated for 10 minutes at room temperature. Unbound SRB is removed by washing 5 times with 1 % acetic acid. The plates are air-dried, the bound stain is solubilized with Tris buffer, and the optical densities read at 515 nm. SRB is a bright pink anionic dye which, in dilute acetic acid, binds electrostatically to the basic amino acids of TCA-fixed cells. Cryopreserved master stocks of all the lines are maintained, and cultures used for screening are replaced from the master stock after no more than twenty passages in the screening laboratory. The cell line panel consists of 60 lines, organized into nine, disease-related subpanels including leukemia, non-small-cell lung cancer, colon, CNS, melanoma, ovarian, renal, prostate and breast cancers.
(§2) The response parameters G150 and LC50 are interpolated values representing the concentrations at which the percentage growth (PG) is +50 and −50, respectively:
(§3) GI50 is the concentration for which the PG=+50. At this value the increase from time tzero, in the number or mass of cells in the test well is only 50% as much as the corresponding increase in the control well during this period of the experiment, see Table II. A drug effect of this intensity is interpreted as primary growth inhibition.
(§4) TGI is the concentration for which PG=0. At this value the number or mass of cells in the well at the end of the experiment equals the number or mass of cells in the well at time tzero, see Table III. A drug effect of this intensity is regarded as cytostasis.
(§5) LC50 is the concentration for which the PG=−50. At this value, the number or mass of cells in the test well at the end of the experiment is half that at time tzero, see Table IV. This is interpreted as cytotoxicity.

60 cell line panel = assay: NCI 60 cell line screen (SRB), whole panel; assay type: cell-based
Protocol: as §1, §2, §3, §4, §5

SN12C = assay: NCI 60 cell line screen (SRB), Renal Cancer; assay type: cell-based
LOX IMVI = assay: NCI 60 cell line screen (SRB), Melanoma; assay type: cell-based
OVCAR-8 = assay: NCI 60 cell line screen (SRB), Ovarian Cancer; assay type: cell-based
SNB-75 = assay: NCI 60 cell line screen (SRB), CNS Cancer; assay type: cell-based
786-0 = assay: NCI 60 cell line screen (SRB), Renal Cancer; assay type: cell-based
BT-549 = assay: NCI 60 cell line screen (SRB), Breast Cancer; assay type: cell-based

## CC1=C(C=Cc2cccc(C=CC3=C(C)C4CCC(C)C5CCC6(C)OOC45C(O3)O6)c2)OC2OC3(C)CCC4C(C)CCC1C24OO3 (centres unmarked) [VII-g]
RXF 393; PG=0
  Log10TGI: >−4.00 log10M
RXF 393; PG=+50
  Log10GI50: −5.80 log10M
RXF 393; Table IV (LC50, PG=−50)
  Log10GI50: >−4.00 log10M
NCI-H522; PG=0
  Log10TGI: >−4.00 log10M
NCI-H522; PG=+50
  Log10GI50: −6.99 log10M
NCI-H522; Table IV (LC50, PG=−50)
  Log10GI50: >−4.00 log10M
MDA-N; PG=0
  Log10TGI: −4.83 log10M
MDA-N; PG=+50
  Log10GI50: −6.82 log10M
MDA-N; Table IV (LC50, PG=−50)
  Log10GI50: >−4.00 log10M
SR; PG=0
  Log10TGI: −7.42 log10M
SR; PG=+50
  Log10GI50: −7.42 log10M
SR; Table IV (LC50, PG=−50)
  Log10GI50: >−4.00 log10M
MCF7; PG=0
  Log10TGI: >−4.00 log10M
MCF7; PG=+50
  Log10GI50: −6.63 log10M
MCF7; Table IV (LC50, PG=−50)
  Log10GI50: >−4.00 log10M
OVCAR-3
  Log10TGI: >−4.00 log10M
MDA-MB-435; MDA-MB-435, PG=0
  Log10TGI: >−4.00 log10M
MDA-MB-435; MDA-MB−435, PG=+50
  Log10GI50: −6.57 log10M
MDA-MB-435; Table IV (LC50, PG=−50), MDA-MB-435
  Log10GI50: >−4.00 log10M
PC-3; PG=0
  Log10TGI: >−4.00 log10M
PC-3; PG=+50
  Log10 GI50 (PG=+50) or LC50 (PG=−50): −7.32 log10M
PC-3; Table IV (LC50, PG=−50)
  Log10 GI50 (PG=+50) or LC50 (PG=−50): >−4.00 log10M
COLO 205; PG=0
  Log10TGI: −6.82 log10M
COLO 205; PG=+50
  Log10GI50: −7.50 log10M
COLO 205; Table IV (LC50, PG=−50)
  Log10GI50: −4.96 log10M
HCT-15; PG=0
  Log10TGI: −4.88 log10M
HCT-15; PG=+50
  log10 GI50 (PG=+50) or LC50 (PG=−50), per row condition: −7.05 log10M
HCT-15; Table IV (LC50, PG=−50)
  log10 GI50 (PG=+50) or LC50 (PG=−50), per row condition: >−4.00 log10M
HOP-62; PG=0
  Log10TGI: >−4.00 log10M
HOP-62; PG=+50
  Log10GI50: −6.45 log10M
HOP-62; Table IV (LC50, PG=−50)
  Log10GI50: >−4.00 log10M
MOLT-4
  drug concentration for cytotoxicity (percentage growth −50): greater than 10^−4 M
MOLT-4; MOLT-4, FIGS. 6a-6e
  drug concentration for primary growth inhibition (percentage growth +50): > 10^−7 molar
MOLT-4; MOLT-4, PG=+50
  Log10GI50: −7.30 log10M
MOLT-4; MOLT−4, PG=0
  Log10TGI: −7.30 log10M
MOLT-4; Table IV (LC50, PG=−50), MOLT−4
  Log10GI50: >−4.00 log10M
60 cell line panel; Table IV (LC50), mean over the panel
  MG MID of Log10GI50 (Table IV): −4.02 log10M
60 cell line panel; Table IV (LC50), panel summary
  Delta of Log10GI50 (Table IV): 0.94
  Range of Log10GI50 (Table IV): 0.96
60 cell line panel; Tables II, III and IV
  potency in words, compared with artemisinin and paclitaxel: in most instances are as potent and in some instances more potent than paclitaxel; also recorded: more potent than artemisinin and equivalent to and in many instances higher in potency than paclitaxel
60 cell line panel; mean over the panel
  MG MID of Log10GI50: −6.58 log10M
  MG MID of Log10TGI: −4.32 log10M
60 cell line panel; panel summary
  Delta of Log10GI50: 0.93
  Delta of Log10TGI: 2.51
  Range of Log10GI50: 2.60
  Range of Log10TGI: 2.82
SN12C; SN12C, PG=0
  Log10TGI: >−4.00 log10M
SN12C; SNI2C, PG=+50
  Log10GI50: −6.69 log10M
SN12C; Table IV (LC50, PG=−50), SN12C
  Log10GI50: >−4.00 log10M
LOX IMVI; PG=0
  Log10TGI: −5.06 log10M
LOX IMVI; PG=+50
  Log10GI50: −7.07 log10M
LOX IMVI; Table IV (LC50, PG=−50)
  Log10GI50: >−4.00 log10M
OVCAR-8; PG=0
  Log10TGI: >−4.00 log10M
OVCAR-8; PG=+50
  Log10GI50: −6.70 log10M
OVCAR-8; Table IV (LC50, PG=−50)
  Log10GI50: >−4.00 log10M
SNB-75; PG=+50
  Log10 GI50 (PG=+50) or LC50 (PG=−50): −6.45 log10M
SNB-75; Table IV (LC50, PG=−50)
  Log10 GI50 (PG=+50) or LC50 (PG=−50): >−4.00 log10M
786-0; PG=0
  Log10TGI: >−4.00 log10M
786-0; PG=+50
  Log10GI50: −6.10 log10M
786-0; Table IV (LC50, PG=−50)
  Log10GI50: >−4.00 log10M
BT-549; PG=+50
  Log10GI50: −7.51 log10M
BT-549; Table IV (LC50, PG=−50)
  Log10GI50: >−4.00 log10M
